# Experimental data published in PubChem BioAssay (NCI).
#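 1) Cells in 96-well plates. 2) Compound, 48 h, 5 concentrations. 3) Linear interpolation between surrounding doses. 4) Unreached endpoint = highest concentration. TGI marks complete inhibition of growth.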
# Assays:
# Experiment in all cases: NCI tumour cell line growth inhibition, 48 h
# 786-0 renal = test system: 786-0 renal
# A498 renal = test system: A498 renal
# A549 NSCLC = test system: A549 NSCLC
# ACHN renal = test system: ACHN renal
# BT-549 breast = test system: BT-549 breast
# CAKI-1 renal = test system: CAKI-1 renal
# COLO 205 colon = test system: COLO 205 colon
# DU-145 prostate = test system: DU-145 prostate
# EKVX NSCLC = test system: EKVX NSCLC
# HCC-2998 colon = test system: HCC-2998 colon
# HCT-116 colon = test system: HCT-116 colon
# HCT-15 colon = test system: HCT-15 colon
# HOP-62 NSCLC = test system: HOP-62 NSCLC
# HOP-92 NSCLC = test system: HOP-92 NSCLC
# HS 578T breast = test system: HS 578T breast
# HT29 colon = test system: HT29 colon
# IGROV1 ovarian = test system: IGROV1 ovarian
# K-562 leukemia = test system: K-562 leukemia
# KM12 colon = test system: KM12 colon
# M14 melanoma = test system: M14 melanoma
# MALME-3M melanoma = test system: MALME-3M melanoma
# MCF7 breast = test system: MCF7 breast
# MDA-MB-231 breast = test system: MDA-MB-231 breast
# MDA-MB-435 = test system: MDA-MB-435
# MDA-N = test system: MDA-N
# MOLT-4 leukemia = test system: MOLT-4 leukemia
# NCI-H23 lung = test system: NCI-H23 lung
# NCI-H460 lung = test system: NCI-H460 lung
# NCI-H522 lung = test system: NCI-H522 lung
# NCI/ADR-RES ovarian = test system: NCI/ADR-RES ovarian
# OVCAR-3 ovarian = test system: OVCAR-3 ovarian
# OVCAR-4 ovarian = test system: OVCAR-4 ovarian
# OVCAR-5 ovarian = test system: OVCAR-5 ovarian
# OVCAR-8 ovarian = test system: OVCAR-8 ovarian
# PC-3 prostate = test system: PC-3 prostate
# RPMI-8226 leukemia = test system: RPMI-8226 leukemia
# RXF 393 renal = test system: RXF 393 renal
# SF-268 CNS = test system: SF-268 CNS
# SF-295 CNS = test system: SF-295 CNS
# SK-MEL-2 melanoma = test system: SK-MEL-2 melanoma
# SK-MEL-28 melanoma = test system: SK-MEL-28 melanoma
# SK-MEL-5 melanoma = test system: SK-MEL-5 melanoma
# SK-OV-3 ovarian = test system: SK-OV-3 ovarian
# SNB-19 CNS = test system: SNB-19 CNS
# SNB-75 CNS = test system: SNB-75 CNS
# SW-620 colon = test system: SW-620 colon
# T-47D breast = test system: T-47D breast
# TK-10 renal = test system: TK-10 renal
# U251 CNS = test system: U251 CNS
# UACC-257 melanoma = test system: UACC-257 melanoma
# UACC-62 melanoma = test system: UACC-62 melanoma
# UO-31 renal = test system: UO-31 renal
# CCRF-CEM leukemia = test system: CCRF-CEM leukemia
# LOX IMVI melanoma = test system: LOX IMVI melanoma
# NCI-H226 lung = test system: NCI-H226 lung
# SF-539 CNS = test system: SF-539 CNS
# SN12C renal = test system: SN12C renal
# HL-60(TB) leukemia = test system: HL-60(TB) leukemia
# SR leukemia = test system: SR leukemia
smiles,measurement,setting,value
N#CC(Cc1ccccc1)N(CCC1=CCCCC1)Cc1ccccc1 (stereo unspecified),TGI,786-0 renal,> 100 µM
same,TGI,A498 renal,> 100 µM
same,TGI,A549 NSCLC,> 100 µM
same,TGI,ACHN renal,> 100 µM
same,TGI,BT-549 breast,> 100 µM
same,TGI,CAKI-1 renal,> 100 µM
same,TGI,COLO 205 colon,66.4 µM
same,TGI,DU-145 prostate,> 100 µM
same,TGI,EKVX NSCLC,> 100 µM
same,TGI,HCC-2998 colon,> 100 µM
same,TGI,HCT-116 colon,> 100 µM
same,TGI,HCT-15 colon,> 100 µM
same,TGI,HOP-62 NSCLC,> 100 µM
same,TGI,HOP-92 NSCLC,> 100 µM
same,TGI,HS 578T breast,> 100 µM
same,TGI,HT29 colon,> 100 µM
same,TGI,IGROV1 ovarian,> 100 µM
same,TGI,K-562 leukemia,> 100 µM
same,TGI,KM12 colon,> 100 µM
same,TGI,M14 melanoma,> 100 µM
same,TGI,MALME-3M melanoma,> 100 µM
same,TGI,MCF7 breast,> 100 µM
same,TGI,MDA-MB-231 breast,> 100 µM
same,TGI,MDA-MB-435,91.1 µM
same,TGI,MDA-N,> 100 µM
same,TGI,MOLT-4 leukemia,90.6 µM
same,TGI,NCI-H23 lung,> 100 µM
same,TGI,NCI-H460 lung,> 100 µM
same,TGI,NCI-H522 lung,68 µM
same,TGI,NCI/ADR-RES ovarian,> 100 µM
same,TGI,OVCAR-3 ovarian,> 100 µM
same,TGI,OVCAR-4 ovarian,> 100 µM
same,TGI,OVCAR-5 ovarian,> 100 µM
same,TGI,OVCAR-8 ovarian,> 100 µM
same,TGI,PC-3 prostate,> 100 µM
same,TGI,RPMI-8226 leukemia,63.5 µM
same,TGI,RXF 393 renal,> 100 µM
same,TGI,SF-268 CNS,> 100 µM
same,TGI,SF-295 CNS,> 100 µM
same,TGI,SK-MEL-2 melanoma,> 100 µM
same,TGI,SK-MEL-28 melanoma,> 100 µM
same,TGI,SK-MEL-5 melanoma,51.9 µM
same,TGI,SK-OV-3 ovarian,> 100 µM
same,TGI,SNB-19 CNS,> 100 µM
same,TGI,SNB-75 CNS,> 100 µM
same,TGI,SW-620 colon,> 100 µM
same,TGI,T-47D breast,> 100 µM
same,TGI,TK-10 renal,> 100 µM
same,TGI,U251 CNS,> 100 µM
same,TGI,UACC-257 melanoma,> 100 µM
same,TGI,UACC-62 melanoma,> 100 µM
same,TGI,UO-31 renal,> 100 µM
COC(O)C(=O)c1ccc2c(c1)CC1(C2)Cc2cc3c(cc2C1=O)CCC3 (stereo unspecified),TGI,786-0 renal,31.4 µM
same,TGI,A498 renal,37.1 µM
same,TGI,A549 NSCLC,47.4 µM
same,TGI,ACHN renal,30.6 µM
same,TGI,BT-549 breast,31.8 µM
same,TGI,CAKI-1 renal,31.2 µM
same,TGI,CCRF-CEM leukemia,48 µM
same,TGI,COLO 205 colon,47.2 µM
same,TGI,DU-145 prostate,31.1 µM
same,TGI,EKVX NSCLC,45.7 µM
same,TGI,HCC-2998 colon,38.6 µM
same,TGI,HCT-116 colon,34.8 µM
same,TGI,HCT-15 colon,58 µM
same,TGI,HOP-62 NSCLC,38.8 µM
same,TGI,HS 578T breast,60.7 µM
same,TGI,HT29 colon,42.3 µM
same,TGI,IGROV1 ovarian,32.8 µM
same,TGI,K-562 leukemia,21.8 µM
same,TGI,KM12 colon,43.9 µM
same,TGI,LOX IMVI melanoma,10.1 µM
same,TGI,M14 melanoma,35.9 µM
same,TGI,MALME-3M melanoma,36.1 µM
same,TGI,MCF7 breast,39.6 µM
same,TGI,MDA-MB-231 breast,73.3 µM
same,TGI,MDA-MB-435,35.3 µM
same,TGI,MDA-N,42.3 µM
same,TGI,MOLT-4 leukemia,64 µM
same,TGI,NCI-H226 lung,43.6 µM
same,TGI,NCI-H23 lung,56.2 µM
same,TGI,NCI-H460 lung,70.6 µM
same,TGI,NCI-H522 lung,35.7 µM
same,TGI,NCI/ADR-RES ovarian,> 100 µM
same,TGI,OVCAR-3 ovarian,34.5 µM
same,TGI,OVCAR-4 ovarian,30.4 µM
same,TGI,OVCAR-5 ovarian,52.3 µM
same,TGI,PC-3 prostate,30.8 µM
same,TGI,RPMI-8226 leukemia,32.7 µM
same,TGI,SF-268 CNS,43.3 µM
same,TGI,SF-295 CNS,44.1 µM
same,TGI,SF-539 CNS,35.4 µM
same,TGI,SK-MEL-2 melanoma,47.1 µM
same,TGI,SK-MEL-28 melanoma,29.6 µM
same,TGI,SK-MEL-5 melanoma,29.4 µM
same,TGI,SK-OV-3 ovarian,31.9 µM
same,TGI,SN12C renal,29.6 µM
same,TGI,SNB-19 CNS,34.5 µM
same,TGI,SNB-75 CNS,37.5 µM
same,TGI,SW-620 colon,30.3 µM
same,TGI,T-47D breast,48.1 µM
same,TGI,TK-10 renal,36.2 µM
same,TGI,U251 CNS,35.5 µM
same,TGI,UACC-257 melanoma,39.7 µM
same,TGI,UACC-62 melanoma,34 µM
same,TGI,UO-31 renal,30.5 µM
CCC(=O)Nc1ccc(NC(C#N)c2cccc(Oc3ccccc3)c2)cc1 (stereo unspecified),TGI,786-0 renal,> 100 µM
same,TGI,A498 renal,> 100 µM
same,TGI,A549 NSCLC,> 100 µM
same,TGI,ACHN renal,> 100 µM
same,TGI,BT-549 breast,> 100 µM
same,TGI,CAKI-1 renal,> 100 µM
same,TGI,CCRF-CEM leukemia,> 100 µM
same,TGI,COLO 205 colon,> 100 µM
same,TGI,DU-145 prostate,> 100 µM
same,TGI,EKVX NSCLC,> 100 µM
same,TGI,HCT-116 colon,> 100 µM
same,TGI,HCT-15 colon,> 100 µM
same,TGI,HL-60(TB) leukemia,46.8 µM
same,TGI,HOP-62 NSCLC,> 100 µM
same,TGI,HOP-92 NSCLC,> 100 µM
same,TGI,HS 578T breast,> 100 µM
same,TGI,HT29 colon,> 100 µM
same,TGI,IGROV1 ovarian,> 100 µM
same,TGI,K-562 leukemia,> 100 µM
same,TGI,KM12 colon,> 100 µM
same,TGI,LOX IMVI melanoma,47 µM
same,TGI,M14 melanoma,> 100 µM
same,TGI,MALME-3M melanoma,94.2 µM
same,TGI,MCF7 breast,> 100 µM
same,TGI,MDA-MB-435,> 100 µM
same,TGI,MDA-N,> 100 µM
same,TGI,MOLT-4 leukemia,36 µM
same,TGI,NCI-H226 lung,89.3 µM
same,TGI,NCI-H23 lung,> 100 µM
same,TGI,NCI-H522 lung,> 100 µM
same,TGI,NCI/ADR-RES ovarian,> 100 µM
same,TGI,OVCAR-3 ovarian,> 100 µM
same,TGI,OVCAR-4 ovarian,> 100 µM
same,TGI,OVCAR-5 ovarian,> 100 µM
same,TGI,OVCAR-8 ovarian,73.4 µM
same,TGI,PC-3 prostate,> 100 µM
same,TGI,RPMI-8226 leukemia,66.9 µM
same,TGI,RXF 393 renal,> 100 µM
same,TGI,SF-268 CNS,> 100 µM
same,TGI,SF-295 CNS,> 100 µM
same,TGI,SF-539 CNS,74.2 µM
same,TGI,SK-MEL-2 melanoma,94.6 µM
same,TGI,SK-MEL-28 melanoma,> 100 µM
same,TGI,SK-MEL-5 melanoma,48.1 µM
same,TGI,SK-OV-3 ovarian,> 100 µM
same,TGI,SN12C renal,> 100 µM
same,TGI,SNB-19 CNS,> 100 µM
same,TGI,SNB-75 CNS,> 100 µM
same,TGI,SR leukemia,55 µM
same,TGI,SW-620 colon,> 100 µM
same,TGI,T-47D breast,> 100 µM
same,TGI,UACC-62 melanoma,> 100 µM
same,TGI,UO-31 renal,> 100 µM
O=c1[nH]nc(-c2ccccc2)n1/N=C/c1cccs1,TGI,786-0 renal,> 100 µM
same,TGI,A498 renal,> 100 µM
same,TGI,A549 NSCLC,> 100 µM
same,TGI,ACHN renal,> 100 µM
same,TGI,BT-549 breast,95.8 µM
same,TGI,CAKI-1 renal,> 100 µM
same,TGI,CCRF-CEM leukemia,> 100 µM
same,TGI,COLO 205 colon,35.8 µM
same,TGI,DU-145 prostate,> 100 µM
same,TGI,EKVX NSCLC,> 100 µM
same,TGI,HCC-2998 colon,> 100 µM
same,TGI,HCT-116 colon,> 100 µM
same,TGI,HCT-15 colon,> 100 µM
same,TGI,HOP-62 NSCLC,> 100 µM
same,TGI,HS 578T breast,> 100 µM
same,TGI,HT29 colon,> 100 µM
same,TGI,K-562 leukemia,> 100 µM
same,TGI,KM12 colon,> 100 µM
same,TGI,LOX IMVI melanoma,> 100 µM
same,TGI,M14 melanoma,> 100 µM
same,TGI,MALME-3M melanoma,> 100 µM
same,TGI,MCF7 breast,> 100 µM
same,TGI,MDA-MB-231 breast,> 100 µM
same,TGI,MDA-MB-435,79.5 µM
same,TGI,MDA-N,> 100 µM
same,TGI,MOLT-4 leukemia,> 100 µM
same,TGI,NCI-H226 lung,> 100 µM
same,TGI,NCI-H23 lung,> 100 µM
same,TGI,NCI-H460 lung,> 100 µM
same,TGI,NCI/ADR-RES ovarian,93.8 µM
same,TGI,OVCAR-3 ovarian,> 100 µM
same,TGI,OVCAR-4 ovarian,62 µM
same,TGI,OVCAR-5 ovarian,> 100 µM
same,TGI,OVCAR-8 ovarian,> 100 µM
same,TGI,PC-3 prostate,> 100 µM
same,TGI,RPMI-8226 leukemia,> 100 µM
same,TGI,RXF 393 renal,85.2 µM
same,TGI,SF-268 CNS,> 100 µM
same,TGI,SF-295 CNS,> 100 µM
same,TGI,SF-539 CNS,> 100 µM
same,TGI,SK-MEL-2 melanoma,> 100 µM
same,TGI,SK-MEL-28 melanoma,> 100 µM
same,TGI,SK-OV-3 ovarian,> 100 µM
same,TGI,SN12C renal,> 100 µM
same,TGI,SNB-19 CNS,> 100 µM
same,TGI,SNB-75 CNS,> 100 µM
same,TGI,SW-620 colon,> 100 µM
same,TGI,T-47D breast,> 100 µM
same,TGI,U251 CNS,> 100 µM
same,TGI,UACC-257 melanoma,> 100 µM
same,TGI,UACC-62 melanoma,> 100 µM
same,TGI,UO-31 renal,> 100 µM
